Test results: BindingDB's records for patent US10022387 (Incyte, 2018)
pIC50: −log10 of the molar value.

What was measured:
[1] = target: T1, Phosphatidylinositol 4,5-bisphosphate 3-kinase catalytic subunit delta isoform (Homo sapiens, UniProt O00329); experiment: PI3Kdelta Scintillation Proximity Assay; settings: pH 6.7; 25 °C
T1 sequence (O00329 whole entry): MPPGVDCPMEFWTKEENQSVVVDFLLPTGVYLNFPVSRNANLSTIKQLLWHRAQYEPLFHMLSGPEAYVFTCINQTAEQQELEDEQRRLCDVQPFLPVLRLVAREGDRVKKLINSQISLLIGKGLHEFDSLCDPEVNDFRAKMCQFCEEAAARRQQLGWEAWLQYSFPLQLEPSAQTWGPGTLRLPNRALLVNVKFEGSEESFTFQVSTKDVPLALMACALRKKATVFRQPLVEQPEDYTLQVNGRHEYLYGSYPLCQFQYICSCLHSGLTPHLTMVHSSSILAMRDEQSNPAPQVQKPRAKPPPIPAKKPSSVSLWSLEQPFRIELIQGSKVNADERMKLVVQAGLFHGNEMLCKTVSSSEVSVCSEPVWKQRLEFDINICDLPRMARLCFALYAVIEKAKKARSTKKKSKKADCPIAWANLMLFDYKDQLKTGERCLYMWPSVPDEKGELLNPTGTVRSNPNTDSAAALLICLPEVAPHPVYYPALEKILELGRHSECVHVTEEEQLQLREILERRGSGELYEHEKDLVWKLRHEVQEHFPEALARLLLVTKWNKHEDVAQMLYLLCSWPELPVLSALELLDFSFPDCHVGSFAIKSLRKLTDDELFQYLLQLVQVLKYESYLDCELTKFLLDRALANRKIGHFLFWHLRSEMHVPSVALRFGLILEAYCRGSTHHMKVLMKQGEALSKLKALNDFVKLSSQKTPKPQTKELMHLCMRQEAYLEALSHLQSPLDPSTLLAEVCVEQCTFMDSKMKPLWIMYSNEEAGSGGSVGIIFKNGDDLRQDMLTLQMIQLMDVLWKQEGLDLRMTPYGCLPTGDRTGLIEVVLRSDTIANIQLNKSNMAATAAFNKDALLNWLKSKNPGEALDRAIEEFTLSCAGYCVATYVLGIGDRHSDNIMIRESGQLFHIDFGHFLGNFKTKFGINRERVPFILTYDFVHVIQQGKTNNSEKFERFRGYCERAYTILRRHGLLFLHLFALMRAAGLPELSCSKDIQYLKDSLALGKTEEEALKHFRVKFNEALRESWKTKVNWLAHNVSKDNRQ
Text: [γ-33P]ATP (10 mCi/mL) and Wheat Germ Agglutinin (WGA) YSi SPA Scintillation Beads was purchased from Perkin-Elmer (Waltham, Mass.). Lipid kinase substrate, D-myo-Phosphatidylinositol 4,5-bisphosphate (PtdIns(4,5)P2)D (+)-sn-1,2-di-O-octanoylglyceryl, 3-O-phospho linked (PIP2), CAS 204858-53-7, was purchased from Echelon Biosciences (Salt Lake City, Utah). PI3Kδ (p110δ/p85α) Recombinant Human Protein was purchased from Eurofins (St. Charles, Mo.). ATP, MgCl2, DTT, EDTA, MOPS and CHAPS were purchased from Sigma-Aldrich (St. Louis, Mo.).The kinase reaction was conducted in polystyrene 384-well Greiner Bio-one white plate from Thermo Fisher Scientific in a final volume of 25 μL. Inhibitors were first diluted serially in DMSO and added to the plate wells before the addition of other reaction components. The final concentration of DMSO in the assay was 2%. The PI3Kδ assay was carried out at room temperature in 20 mM MOPS, pH 6.7, 10 mM MgCl2, 5 mM DTT and CHAPS 0.03%. Reactions were initiated by the addition of ATP, the final reaction mixture consisted of 20 μM PIP2, 2 μM ATP, 0.5 μCi [γ-33P] ATP, 3.4 nM PI3Kδ. Reactions were incubated for 120 min and terminated by the addition of 40 μL SPA beads suspended in quench buffer: 163 mM potassium phosphate pH 7.8, 20% glycerol, 25 mM EDTA. The final concentration of SPA beads is 1.0 mg/mL. After the plate sealing, plates were shaken overnight at room temperature and centrifuged at 1500 rpm for 10 min, the radioactivity of the product was determined by scintillation counting on Topcount (Perkin-Elmer). IC50 determination was performed by fitting the curve of percent of the solvent control activity versus the log of the inhibitor concentration using the GraphPad Prism 6.0 software.

[2] = target: Phosphatidylinositol 4,5-bisphosphate 3-kinase catalytic subunit gamma isoform (Homo sapiens, UniProt P48736); experiment: PI3K-gamma Scintillation Proximity Assay; settings: pH 6.7; 25 °C
Text: γ-33P]ATP (10 mCi/mL) and Wheat Germ Agglutinin (WGA) YSi SPA Scintillation Beads was purchased from Perkin-Elmer (Waltham, Mass.). Lipid kinase substrate, D-myo-Phosphatidylinositol 4,5-bisphosphate (PtdIns(4,5)P2)D (+)-sn-1,2-di-O-octanoylglyceryl, 3-O-phospho linked (PIP2), CAS 204858-53-7, was purchased from Echelon Biosciences (Salt Lake City, Utah). PI3Kγ (p110γ) Recombinant Human Protein was purchased from Life technology (Grand Island, N.Y.). ATP, MgCl2, DTT, EDTA, MOPS and CHAPS were purchased from Sigma-Aldrich (St. Louis, Mo.).The kinase reaction was conducted in polystyrene 384-well Greiner Bio-one white plate from Thermo Fisher Scientific in a final volume of 25 μL. Inhibitors were first diluted serially in DMSO and added to the plate wells before the addition of other reaction components. The final concentration of DMSO in the assay was 2%. The PI3Kγ assay was carried out at room temperature in 20 mM MOPS, pH 6.7, 10 mM MgCl2, 5 mM DTT and CHAPS 0.03%. Reactions were initiated by the addition of ATP, the final reaction mixture consisted of 20 μM PIP2, 2 μM ATP, 0.5 μCi [γ-33P] ATP, 13 nM PI3Kγ. […] After the plate sealing, plates were shaken overnight at room temperature and centrifuged at 1500 rpm for 10 min, the radioactivity of the product was determined by scintillation counting on Topcount (Perkin-Elmer). […]

Chain of Phosphatidylinositol 4,5-bisphosphate 3-kinase catalytic subunit gamma isoform (P48736 whole entry, canonical isoform): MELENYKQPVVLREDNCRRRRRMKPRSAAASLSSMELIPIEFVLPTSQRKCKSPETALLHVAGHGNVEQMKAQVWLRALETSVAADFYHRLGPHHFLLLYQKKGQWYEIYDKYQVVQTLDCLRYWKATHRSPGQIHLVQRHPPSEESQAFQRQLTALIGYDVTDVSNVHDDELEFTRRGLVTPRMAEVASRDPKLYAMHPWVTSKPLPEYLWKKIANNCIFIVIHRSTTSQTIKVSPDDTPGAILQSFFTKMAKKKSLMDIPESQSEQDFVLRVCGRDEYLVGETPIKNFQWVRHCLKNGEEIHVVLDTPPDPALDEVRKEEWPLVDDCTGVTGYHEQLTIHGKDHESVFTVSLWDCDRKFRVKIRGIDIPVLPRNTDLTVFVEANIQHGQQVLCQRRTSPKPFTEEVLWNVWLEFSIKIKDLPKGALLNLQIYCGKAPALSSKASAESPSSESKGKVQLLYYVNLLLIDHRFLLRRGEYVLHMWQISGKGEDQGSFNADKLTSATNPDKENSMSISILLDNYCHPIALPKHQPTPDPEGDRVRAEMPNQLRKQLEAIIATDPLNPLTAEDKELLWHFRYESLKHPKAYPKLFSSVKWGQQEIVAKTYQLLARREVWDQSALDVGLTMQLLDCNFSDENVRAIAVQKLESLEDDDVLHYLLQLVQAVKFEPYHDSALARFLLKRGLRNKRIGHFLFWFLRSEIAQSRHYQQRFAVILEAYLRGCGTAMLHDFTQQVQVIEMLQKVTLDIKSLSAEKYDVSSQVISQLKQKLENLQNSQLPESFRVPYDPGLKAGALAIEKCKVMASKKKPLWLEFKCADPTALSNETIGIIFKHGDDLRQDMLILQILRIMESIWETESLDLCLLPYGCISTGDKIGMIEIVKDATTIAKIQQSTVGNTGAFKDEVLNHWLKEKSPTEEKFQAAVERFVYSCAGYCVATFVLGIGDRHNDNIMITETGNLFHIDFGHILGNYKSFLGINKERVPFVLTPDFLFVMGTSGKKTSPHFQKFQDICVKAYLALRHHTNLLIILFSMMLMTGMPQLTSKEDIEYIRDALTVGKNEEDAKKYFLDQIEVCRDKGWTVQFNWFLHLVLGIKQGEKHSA

SMILES | pIC50 [1] | pIC50 [2]
COc1cncc(-c2ccc3nc(-c4cc5ccccc5[nH]4)oc3c2)c1 [US10022387, Example 4] | > 5.30 | 
CC(=O)Nc1cc(-c2ccc3nc(-c4nc5ccccc5[nH]4)oc3c2)cnc1F [US10022387, Example 33] | < 5.30 | > 6.00
CCS(=O)(=O)Nc1cncc(-c2ccc3nc(-c4nc5ccccc5[nH]4)oc3c2)c1 [US10022387, Example 73] | > 5.30 | 
